According to patent US10723705B2, “Heterocyclic compounds and uses thereof” (Incyte Corporation, priority 2015, dated 2020):
Read-outs that look alike come from different tables or passages of the source.

Biological target: Human recombinant Histone Deacetylase 8 (HDAC8) (Homo sapiens (Human), UniProt Q9BY41)
Experiment: HDAC8 Enzymatic Assay (HDAC-Glo I/II luminescence)
Assay type: biochemical
How it was run: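 Human recombinant HDAC8 (1.5 nM final) preincubated with compound for 30 min, then reacted with 50 μM Boc-GAK(Ac)-aminoluciferin plus trypsin-containing developer for 15 min at room temperature, pH 8.0, 0.5% DMSO. Luminescence read-out; IC50 from percent control activity versus log concentration.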

[1] = class symbols, Table 14, read-out: HDAC8 IC50

Chain of Human recombinant Histone Deacetylase 8 (HDAC8) (Q9BY41 whole entry): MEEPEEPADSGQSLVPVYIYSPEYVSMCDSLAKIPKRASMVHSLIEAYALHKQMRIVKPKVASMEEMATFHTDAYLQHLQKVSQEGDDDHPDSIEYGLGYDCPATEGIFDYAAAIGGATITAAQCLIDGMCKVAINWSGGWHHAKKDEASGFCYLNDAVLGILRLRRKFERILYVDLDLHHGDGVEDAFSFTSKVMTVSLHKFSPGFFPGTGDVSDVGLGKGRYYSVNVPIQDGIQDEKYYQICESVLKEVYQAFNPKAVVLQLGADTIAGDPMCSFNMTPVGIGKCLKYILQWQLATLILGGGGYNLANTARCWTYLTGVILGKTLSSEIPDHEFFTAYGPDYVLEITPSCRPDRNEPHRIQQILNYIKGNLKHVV

| SMILES | IC50 [1] [µM] | IC50 (HDAC8, read-out: IC50) [µM] |
| --- | --- | --- |
| O=C(NO)C(Cc1ccccc1)n1nc2c(Cl)nccc2c1I (stereo not drawn) [Compound I-0125, 2-(7-chloro-3-iodo-2H-pyrazolo[3,4-c]pyridin-2-yl)-N-hydroxy-3-phenylpropanamide] | 0.05 to 0.2 | – |
| O=C(NO)C(Cc1ccccc1)n1ncc2cc(-c3cccnc3)cnc21 (stereo not drawn) [Compound I-0132, N-hydroxy-3-phenyl-2-(5-(pyridin-3-yl)-1H-pyrazolo[3,4-b]pyridin-1-yl)propanamide] | 0.2 to 0.5 | – |
| O=C(NO)C(Cc1ccccc1)n1nc2c(c1C#CC1CC1)CCCC2 (stereo not drawn) [Compound I-0206, 2-(3-(cyclopropylethynyl)-4,5,6,7-tetrahydro-2H-indazol-2-yl)-N-hydroxy-3-phenylpropanamide] | ≤ 0.05 | – |
| CNC(=O)c1cccc(-c2cccc3c(C#CC4CC4)n(C(Cc4ccccc4)C(=O)NO)nc23)c1 (stereo not drawn) [Compound I-0158, 3-(3-(cyclopropylethynyl)-2-(1-(hydroxyamino)-1-oxo-3-phenylpropan-2-yl)-2H-indazol-7-yl)-N-methylbenzamide] | ≤ 0.05 | – |
| O=C(NO)C(Cc1ccccc1)n1ncc2cc(-c3ccccc3)cnc21 (stereo not drawn) [Compound I-0116, N-hydroxy-3-phenyl-2-(5-phenyl-1H-pyrazolo[3,4-b]pyridin-1-yl)propanamide] | > 0.5 | – |
| O=C(NO)C(Cc1ccccc1)n1cc2ccc(-c3ccccc3)cc2n1 (stereo not drawn) [Compound I-0006, N-hydroxy-3-phenyl-2-(6-phenyl-2H-indazol-2-yl)propanamide] | 0.2 to 0.5 | – |
| CN1CC=C(c2cccc3nn(C(Cc4ccccc4)C(=O)NO)cc23)CC1 (stereo not drawn) [Compound I-0057, N-hydroxy-2-(4-(1-methyl-1,2,3,6-tetrahydropyridin-4-yl)-2H-indazol-2-yl)-3-phenylpropanamide] | > 0.5 | – |
| O=C(NO)C(Cc1ccccc1)n1nc2c(-c3cccnc3)cccc2c1C#CC1CC1 (stereo not drawn) [Compound I-0155, 2-(3-(cyclopropylethynyl)-7-(pyridin-3-yl)-2H-indazol-2-yl)-N-hydroxy-3-phenylpropanamide] | ≤ 0.05 | – |
| CN1CC=C(c2cccc3cn(C(Cc4ccccc4)C(=O)NO)nc23)CC1 (stereo not drawn) [Compound I-0101, N-hydroxy-2-(7-(1-methyl-1,2,3,6-tetrahydropyridin-4-yl)-2H-indazol-2-yl)-3-phenylpropanamide] | > 0.5 | – |
| N#Cc1ccc(-c2cc3cnn(C(Cc4ccccc4)C(=O)NO)c3cn2)cc1 (stereo not drawn) [Compound I-0088, 2-(5-(4-cyanophenyl)-1H-pyrazolo[3,4-c]pyridin-1-yl)-N-hydroxy-3-phenylpropanamide] | > 0.5 | – |
| O=C(NO)C(Cc1ccccc1)n1ncc2cc(-c3ccccc3)ccc21 (stereo not drawn) [Compound I-0013, N-hydroxy-3-phenyl-2-(5-phenyl-1H-indazol-1-yl)propanamide] | 0.2 to 0.5 | – |
| CN1CCN(c2ccc(-c3cccc4nn(C(Cc5ccccc5)C(=O)NO)cc34)cc2)CC1 (stereo not drawn) [Compound I-0148, N-hydroxy-2-(4-(4-(4-methylpiperazin-1-yl)phenyl)-2H-indazol-2-yl)-3-phenylpropanamide] | 0.05 to 0.2 | – |
| O=C(NO)C(Cc1ccccc1)n1ncc2nc(-c3ccncc3)ccc21 (stereo not drawn) [Compound I-0073, N-hydroxy-3-phenyl-2-(5-(pyridin-4-yl)-1H-pyrazolo[4,3-b]pyridin-1-yl)propanamide] | 0.2 to 0.5 | – |
| NC(=O)c1ccc(-c2cnc3c(cnn3C(Cc3ccccc3)C(=O)NO)c2)cc1 (stereo not drawn) [Compound I-0118, 4-(1-(1-(hydroxyamino)-1-oxo-3-phenylpropan-2-yl)-1H-pyrazolo[3,4-b]pyridin-5-yl)benzamide] | 0.2 to 0.5 | – |
| Cn1nccc1-c1cc2cnn(C(Cc3ccccc3)C(=O)NO)c2cn1 (stereo not drawn) [Compound I-0090, N-hydroxy-2-(5-(1-methyl-1H-pyrazol-5-yl)-1H-pyrazolo[3,4-c]pyridin-1-yl)-3-phenylpropanamide] | 0.2 to 0.5 | – |
| N/C(=N\O)c1cccc(-c2ccc3c(cnn3C(Cc3ccccc3)C(=O)NO)c2)c1 (stereo not drawn) [Compound I-0107, (Z)-N-hydroxy-2-(5-(3-(N′-hydroxy-carbamimid-oyl)phenyl)-1H-indazol-1-yl)-3-phenylpropanamide] | 0.05 to 0.2 | – |
| O=C(NO)C(Cc1ccccc1)n1ccc2c(Cl)nccc21 (stereo not drawn) [Compound I-0196, 2-(4-chloro-1H-pyrrolo[3,2-c]pyridin-1-yl)-N-hydroxy-3-phenylpropanamide] | 0.2 to 0.5 | – |
| O=C(NO)C(Cc1ccccc1)c1cnc2cc(-c3ccncc3)ccn12 (stereo not drawn) [Compound I-0113, N-hydroxy-3-phenyl-2-(7-(pyridin-4-yl)imidazo[1,2-a]pyridin-3-yl)propanamide] | > 0.5 | – |
| O=C(NO)C(Cc1ccccc1)n1cc2cccc(-c3ccccc3)c2n1 (stereo not drawn) [Compound I-0066, N-hydroxy-3-phenyl-2-(7-phenyl-2H-indazol-2-yl)propanamide] | > 0.5 | – |
| O=C(NO)C(Cc1ccccc1)n1nc2ccc(-c3cncnc3)cc2c1C#CC1CC1 (stereo not drawn) [Compound I-0030, 2-(3-(cyclopropylethynyl)-5-(pyrimidin-5-yl)-2H-indazol-2-yl)-N-hydroxy-3-phenylpropanamide] | ≤ 0.05 | – |
| O=C(NO)C(Cc1ccccc1)n1cc2c(-c3ccccc3)cccc2n1 (stereo not drawn) [Compound I-0060, N-hydroxy-3-phenyl-2-(4-phenyl-2H-indazol-2-yl)propanamide] | > 0.5 | – |

| SMILES | IC50 [1] [µM] | IC50 (HDAC8, read-out: IC50) [µM] |
| --- | --- | --- |
| O=C(NO)C(Cc1ccccc1)n1nc(C#CC2CC2)c2ccnc(Cl)c21 (stereo not drawn) [Compound I-0126, 2-[7-Chloro-3-(cyclopropylethynyl)-1H-pyrazolo[3,4-c]pyridin-1-yl]-N-hydroxy-3-phenylpropanamide] | 0.05 to 0.2 | 0.101 |
| O=C(NO)C(Cc1ccccc1)n1cc2cnccc2n1 (stereo not drawn) [Compound I-0043, N-hydroxy-3-phenyl-2-(2H-pyrazolo[4,3-c]pyridin-2-yl)propanamide] | > 0.5 | – |
| Cn1nccc1-c1cccc2c1cnn2C(Cc1ccccc1)C(=O)NO (stereo not drawn) [Compound I-0083, N-hydroxy-2-(4-(1-methyl-1H-pyrazol-5-yl)-1H-indazol-1-yl)-3-phenylpropanamide] | 0.05 to 0.2 | – |
| O=C(NO)C(Cc1ccccc1)n1cc2cccc(CNC3CCOCC3)c2n1 (stereo not drawn) [Compound I-0182, N-hydroxy-3-phenyl-2-(7-((tetrahydro-2H-pyran-4-ylamino)methyl)-2H-indazol-2-yl)propanamide] | > 0.5 | – |
| COC1CCN(Cc2cccc3cn(C(Cc4ccccc4)C(=O)NO)nc23)CC1 (stereo not drawn) [Compound I-0184, N-hydroxy-2-(7-((4-methoxypiperidin-1-yl)methyl)-2H-indazol-2-yl)-3-phenylpropanamide] | 0.2 to 0.5 | – |
| O=C(NCCN1CCOCC1)c1cccc2cn(C(Cc3ccccc3)C(=O)NO)nc12 (stereo not drawn) [Compound I-0179, 2-(1-(hydroxyamino)-1-oxo-3-phenylpropan-2-yl)-N-(2-morpholinoethyl)-2H-indazole-7-carboxamide] | 0.05 to 0.2 | – |
| Cc1cccn2c(C(Cc3ccccc3)C(=O)NO)cnc12 (stereo not drawn) [Compound I-0171, N-hydroxy-2-(8-methylimidazo[1,2-a]pyridin-3-yl)-3-phenylpropanamide] | 0.2 to 0.5 | – |
| O=C(NO)C(Cc1ccccc1)n1ncc2cc(-c3ccncc3)ncc21 (stereo not drawn) [Compound I-0097, N-hydroxy-3-phenyl-2-(5-(pyridin-4-yl)-1H-pyrazolo[3,4-c]pyridin-1-yl)propanamide] | > 0.5 | – |
| O=C(NO)C(Cc1ccccc1)n1cc2ccc(-c3cccnc3)cc2n1 (stereo not drawn) [Compound I-0008, N-hydroxy-3-phenyl-2-(6-(pyridin-3-yl)-2H-indazol-2-yl)propanamide] | 0.2 to 0.5 | – |
| CN1CCN(Cc2cccc3cn(C(Cc4ccccc4)C(=O)NO)nc23)CC1 (stereo not drawn) [Compound I-0188, N-hydroxy-2-(7-((4-methylpiperazin-1-yl)methyl)-2H-indazol-2-yl)-3-phenylpropanamide] | > 0.5 | – |
| O=C(NO)C(Cc1ccccc1)n1ncc2c(-c3cncnc3)nccc21 (stereo not drawn) [Compound I-0071, N-hydroxy-3-phenyl-2-(4-(pyrimidin-5-yl)-1H-pyrazolo[4,3-c]pyridin-1-yl)propanamide] | 0.05 to 0.2 | – |
| Cn1cc(-c2ccc3nn(C(Cc4ccccc4)C(=O)NO)c(C#CC4CC4)c3c2)cn1 (stereo not drawn) [Compound I-0044, 2-(3-(cyclopropylethynyl)-5-(1-methyl-1H-pyrazol-4-yl)-2H-indazol-2-yl)-N-hydroxy-3-phenylpropanamide] | 0.05 to 0.2 | – |
| O=C(NO)C(Cc1ccccc1)n1cc2ccc(Br)cc2n1 (stereo not drawn) [Compound I-0004, 2-(6-bromo-2H-indazol-2-yl)-N-hydroxy-3-phenylpropanamide] | 0.2 to 0.5 | – |
| O=C(NO)C(Cc1ccccc1)c1cnc2c(-c3cncnc3)cccn12 (stereo not drawn) [Compound I-0164, N-hydroxy-3-phenyl-2-(8-pyrimidin-5-ylimidazo[1,2-a]pyridin-3-yl)propanamide] | > 0.5 | – |
| O=C(NO)C(Cc1ccccc1)n1nc2c(-c3cncnc3)cccc2c1C#CC1CC1 (stereo not drawn) [Compound I-0156, 2-(3-(cyclopropylethynyl)-7-(pyrimidin-5-yl)-2H-indazol-2-yl)-N-hydroxy-3-phenylpropanamide] | ≤ 0.05 | – |
| Cn1cc(-c2cccc3cn(C(Cc4ccccc4)C(=O)NO)nc23)cn1 (stereo not drawn) [Compound I-0109, N-hydroxy-2-(7-(1-methyl-1H-pyrazol-4-yl)-2H-indazol-2-yl)-3-phenylpropanamide] | 0.2 to 0.5 | – |
| Cc1ccc2c(cnn2C(Cc2ccccc2)C(=O)NO)c1 (stereo not drawn) [Compound I-0016, N-hydroxy-2-(5-methyl-1H-indazol-1-yl)-3-phenylpropanamide] | 0.05 to 0.2 | – |
| O=C(NO)C(Cc1ccccc1)n1cnc2ccccc21 (stereo not drawn) [Compound I-0041, 2-(1H-benzo[d]imidazol-1-yl)-N-hydroxy-3-phenylpropanamide] | 0.2 to 0.5 | – |
| NC(=O)c1cccc(-c2cnc3c(cnn3C(Cc3ccccc3)C(=O)NO)c2)c1 (stereo not drawn) [Compound I-0131, 3-(1-(1-(hydroxyamino)-1-oxo-3-phenylpropan-2-yl)-1H-pyrazolo[3,4-b]pyridin-5-yl)benzamide] | 0.2 to 0.5 | – |
| O=C(NO)C(Cc1ccccc1)n1cc2c(-c3cncnc3)cccc2n1 (stereo not drawn) [Compound I-0063, N-hydroxy-3-phenyl-2-(4-(pyrimidin-5-yl)-2H-indazol-2-yl)propanamide] | 0.2 to 0.5 | – |
